Reference: publication PMC6369673, “Silent catalytic promiscuity in the high-fidelity terpene cyclase δ-cadinene synthase” (Organic & Biomolecular Chemistry, 2019)
Counter-ions that a name gives are not always drawn. Like-named read-outs stand apart in the source and are kept apart here.

What was measured:
DCS = molecular target: DCS; design: method as in PMID 22397618; settings: cited from earlier work
[1] = molecular target: T1, amorpha-4,11-diene synthase (ADS) (Artemisia annua, UniProt Q9AR04); test: Inhibition of amorpha-4,11-diene synthase, radiolabelled FDP assay; type: biochemical
T1 construct: made in house
T1 sequence (Q9AR04 whole entry): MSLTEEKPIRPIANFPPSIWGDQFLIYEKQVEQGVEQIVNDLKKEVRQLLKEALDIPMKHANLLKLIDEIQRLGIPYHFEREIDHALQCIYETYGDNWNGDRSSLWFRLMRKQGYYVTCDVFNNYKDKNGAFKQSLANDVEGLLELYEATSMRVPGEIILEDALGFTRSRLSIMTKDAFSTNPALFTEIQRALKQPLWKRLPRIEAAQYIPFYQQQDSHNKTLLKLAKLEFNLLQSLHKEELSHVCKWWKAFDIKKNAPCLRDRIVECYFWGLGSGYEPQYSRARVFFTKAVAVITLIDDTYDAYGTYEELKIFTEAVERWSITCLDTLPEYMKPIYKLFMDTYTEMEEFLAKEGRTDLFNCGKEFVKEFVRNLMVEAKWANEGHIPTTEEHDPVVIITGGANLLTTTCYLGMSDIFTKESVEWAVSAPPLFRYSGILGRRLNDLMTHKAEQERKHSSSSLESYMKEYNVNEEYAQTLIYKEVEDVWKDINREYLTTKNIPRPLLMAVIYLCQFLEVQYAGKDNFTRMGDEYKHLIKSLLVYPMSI
Method: (§1) Recombinant AS and ADS were prepared and purified according to previously published procedures[17],[18] and both (R)-11 and (S)-11 were tested as inhibitors using a standard radiolabelled assay involving conversion of tritium labelled FDP by each enzyme and scintillation counting of the pentane extractable products.[5b] Terpene synthases are known to efficiently bind cation-PPi pairs and inhibition was assessed both in the presence and absence of 250 μM diphosphate (Table 1). Synergistic inhibition of aza-analogues 11 with diphosphate has been observed previously for a variety of other terpene synthases.[5d],[13c],[14]
(§2) Kinetic data were fitted by non-linear regression to the Michaelis–Menten equation (v0 = kcat[E][S]/(KM + [S]). The mode of inhibition was determined by inspection of double reciprocal plots and observed to be competitive in all cases where inhibition was significant at low concentrations of 11. KI was determined from a plot of inhibitor concentration versus K′M/(kcat[E]) where K′M = KM(1 + [I]/KI). […]
(§3) 2. Steady-state kinetics of DCS-His6, ADS and AS.
(§4) Kinetic assays were carried out according to the standard, linear range, micro-assay procedure previously described.5 The reaction mixtures containing buffer, FDP and protein were prepared on ice in a total volume of 250 µL and were overlaid with ca. 0.8 mL of HPLC-grade hexane prior to incubation. The assay mixtures were initiated by addition of enzyme and incubated at room temp (30 °C) for 10 min. The reactions were immediately ice-cooled and quenched by addition of 200 µL of 100 mM EDTA (pH 8.5) and brief vortexing. The hexane overlay and two additional 1 mL hexane extracts were passed through a short pipette column containing silica gel. The column was washed with additional hexane (1 mL) and the combined filtrates were analysed by liquid scintillation counting using 15 mL of scintillation cocktail Ecoscint O. Steady-State kinetic parameters for DCS-His6 and mutants were obtained by direct fitting of the data to the Michaelis-Menten equation by nonlinear least squares regression in conjunction with the graphical procedures developed by Lineweaver-Burk using the commercial SigmaPlot package (Systat Software).

[2] = molecular target: T2, δ-cadinene synthase (DCS-His6) (Gossypium arboreum, UniProt Q39761); test: Inhibition of δ-cadinene synthase, radiolabelled FDP assay; type: biochemical
T2 construct: hexahistidine (His6) (C); made in house; host or cells: E. coli BL-21 (DE3)
T2 sequence (Q39761 1-554): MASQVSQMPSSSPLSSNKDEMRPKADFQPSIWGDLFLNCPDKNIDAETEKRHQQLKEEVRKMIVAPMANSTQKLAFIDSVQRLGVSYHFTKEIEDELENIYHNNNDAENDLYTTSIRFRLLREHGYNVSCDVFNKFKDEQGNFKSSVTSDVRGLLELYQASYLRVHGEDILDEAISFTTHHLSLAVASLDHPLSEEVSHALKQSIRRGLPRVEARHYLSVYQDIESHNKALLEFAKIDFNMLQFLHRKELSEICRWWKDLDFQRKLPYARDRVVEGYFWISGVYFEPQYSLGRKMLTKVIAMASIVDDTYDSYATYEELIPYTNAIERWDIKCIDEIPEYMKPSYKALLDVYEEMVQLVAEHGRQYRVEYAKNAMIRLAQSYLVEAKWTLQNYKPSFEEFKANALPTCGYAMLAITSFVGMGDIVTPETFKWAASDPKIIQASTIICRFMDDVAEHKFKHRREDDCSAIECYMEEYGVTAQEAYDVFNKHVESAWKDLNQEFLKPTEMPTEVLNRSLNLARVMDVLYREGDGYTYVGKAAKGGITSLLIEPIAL
Method: as §1
Kinetic data were fitted by non-linear regression to the Michaelis–Menten equation (v0 = kcat[E][S]/(KM + [S]). The mode of inhibition was determined by inspection of double reciprocal plots and observed to be competitive in all cases where inhibition was significant at low concentrations of 11. KI was determined from a plot of inhibitor concentration versus K′M/(kcat[E]) where K′M = KM(1 + [I]/KI).
Recombinant DCS was generated with a C-terminal hexahistidine tag (DCS-His6) as previously described.[19] Inhibition assays were carried out using the same protocol used for AS and ADS. […] DCS clearly requires a cation–anion pair in its active site for effective inhibition by aza-analogues. Our results provide strong evidence for 1,6-cyclase activity for DCS. […]
as §3, §4

[3] = molecular target: T3, aristolochene synthase from Penicillium roqueforti (AS) (Penicillium roqueforti, UniProt Q03471); test: Inhibition of aristolochene synthase, radiolabelled FDP assay; type: biochemical
T3 construct: made in house
T3 sequence (Q03471 whole entry): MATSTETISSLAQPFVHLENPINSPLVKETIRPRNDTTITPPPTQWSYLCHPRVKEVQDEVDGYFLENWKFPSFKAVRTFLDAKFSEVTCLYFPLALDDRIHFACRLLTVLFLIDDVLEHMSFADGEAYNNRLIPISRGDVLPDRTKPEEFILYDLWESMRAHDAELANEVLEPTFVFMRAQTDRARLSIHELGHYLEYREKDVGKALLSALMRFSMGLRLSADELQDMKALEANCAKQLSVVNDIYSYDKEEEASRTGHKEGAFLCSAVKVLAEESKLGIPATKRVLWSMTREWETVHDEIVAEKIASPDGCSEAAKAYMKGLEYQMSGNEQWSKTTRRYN
Method: as §1, §2, §3, §4

[4] = +250 μM PPi, read-out: K i (μM) (+250 μM PPi)
[5] = K i (μM) (+250 μM PPi), +250 μM PPi

CC(C)=CCCN(C)[C@@H]1CC=C(C)CC1 (as salt: hydrochloride) [(S)-11]
melting point: 131 to 133 °C

CC(C)=CCCC(C)=C(F)CCC(C)=CCOP(=O)(O)OP(=O)(O)O [6F-FDP, 6-fluorofarnesyl diphosphate]
Ki (DCS; DCS, 6F-FDP as substrate analogue): 2.4 µM
Products when incubated with DCS (DCS; pentane-extractable products): no detectable pentane-extractable products

CC(C)=CCCN(C)[C@H]1CC=C(C)CC1 [(R)-11]
Ki [1, 4]: 3.7 ± 1.9 µM
Ki ([1]; absence of PPi, read-out: K i): 50 ± 17 µM
Ki [2, 4]: 2.5 ± 0.5 µM
Ki ([2]; absence of PPi, read-out: K i): 1700 ± 300 µM
Inhibition in words ([2]; in the absence of PPi): weak inhibitor
Ki [3, 5]: 489 ± 62 µM
Ki ([3]; K i (μM), absence of PPi): 472 ± 48 µM

CC(C)=CCCN(C)[C@@H]1CC=C(C)CC1 [(S)-11]
Ki [1, 4]: 1.5 ± 0.5 µM
Ki ([1]; absence of PPi, read-out: K i): 25 ± 5 µM
Ki [2, 4]: 3.44 ± 1.43 µM
Ki ([2]; absence of PPi, read-out: K i): 273 ± 77 µM
Ki [3, 5]: 255 ± 23 µM
Ki ([3]; K i (μM), absence of PPi): 295 ± 23 µM
